Measurements: ChEMBL document CHEMBL1201862, “PubChem BioAssay data set” (2004)
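Results reflect a 48-hour exposure of cells in 96-well plates to compound at five concentrations. Here, GI50 denotes the concentration required for 50% inhibition of growth.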 Active and inactive are the calls of the source. Rule as the data show it: active = GI50 up to about 1.1 µM and inactive = higher.

What was measured:
Experiment in all cases: inhibition of tumour cell growth, NCI panel, 48 h
[1] = test system: NCI-H460
[2] = test system: Malme-3M
[3] = test system: MCF7
[4] = test system: HL-60
[5] = test system: BT-549
[6] = test system: CCRF-CEM
[7] = test system: TK-10
[8] = test system: UACC-257
[9] = test system: SK-MEL-5
[10] = test system: HCT-116
[11] = test system: SN12C
[12] = test system: Hs-578T
[13] = test system: UO-31
[14] = test system: U-251
[15] = test system: HOP-92
[16] = test system: ACHN
[17] = test system: OVCAR-4
[18] = test system: SK-MEL-2
[19] = test system: T47D
[20] = test system: RPMI-8226

| Structure (SMILES) | GI50 [1] | GI50 [2] | GI50 [3] | GI50 [4] | GI50 [5] | GI50 [6] | GI50 [7] | GI50 [8] | GI50 [9] | GI50 [10] | GI50 [11] | GI50 [12] | GI50 [13] | GI50 [14] | GI50 [15] | GI50 [16] | GI50 [17] | GI50 [18] | GI50 [19] | GI50 [20] |
| --- | --- | --- | --- | --- | --- | --- | --- | --- | --- | --- | --- | --- | --- | --- | --- | --- | --- | --- | --- | --- |
| Cc1cn(C2OC(CO)C(O)C2F)c(=O)[nH]c1=O (stereo not drawn) | 21.7 µM (inactive) | > 100 µM (inactive) | > 100 µM (inactive) | > 100 µM (inactive) | 87.1 µM (inactive) | 12.2 µM (inactive) | > 100 µM (inactive) | > 100 µM (inactive) | > 100 µM (inactive) | 73.3 µM (inactive) | > 100 µM (inactive) | > 100 µM (inactive) | > 100 µM (inactive) | > 100 µM (inactive) | > 100 µM (inactive) | 89.7 µM (inactive) | > 100 µM (inactive) | > 100 µM (inactive) | > 100 µM (inactive) |  |
| COC(=O)C(=O)C(C(=O)C(=O)Nc1ccc(Cl)c(Cl)c1)c1nc2ccc(C(=O)c3ccccc3)cc2nc1O (stereo not drawn) |  | 73.8 µM (inactive) | 35.2 µM (inactive) | 45 µM (inactive) | > 100 µM (inactive) | 46.6 µM (inactive) | > 100 µM (inactive) | > 100 µM (inactive) | > 100 µM (inactive) | 61.4 µM (inactive) | > 100 µM (inactive) | 22.1 µM (inactive) | 26.4 µM (inactive) | 71 µM (inactive) | > 100 µM (inactive) | 46.5 µM (inactive) |  | 97.9 µM (inactive) | 49 µM (inactive) | 40.2 µM (inactive) |
| COc1ccc(-c2cn3c(nc4ccccc43)c(/C=C/c3cccs3)n2)cc1 | 32.4 µM (inactive) | 23.4 µM (inactive) | 15 µM (inactive) | 20.4 µM (inactive) | 63 µM (inactive) |  | > 100 µM (inactive) | 62.7 µM (inactive) | 15.8 µM (inactive) | 51.2 µM (inactive) | > 100 µM (inactive) | 28.4 µM (inactive) | > 100 µM (inactive) | 53.1 µM (inactive) | 16.9 µM (inactive) | > 100 µM (inactive) | 49.7 µM (inactive) | 10.6 µM (inactive) | 43.2 µM (inactive) | 15.4 µM (inactive) |
| N=c1oc2cc(O)ccc2cc1C(=O)Nc1cccc2ccccc12 | 4.02 µM (inactive) | 0.883 µM (active) | 3.93 µM (inactive) | 2.11 µM (inactive) | 2.43 µM (inactive) | 2.35 µM (inactive) | 2.69 µM (inactive) | 9.08 µM (inactive) | 4.23 µM (inactive) | 3.39 µM (inactive) | 5.33 µM (inactive) | 2.94 µM (inactive) | 4.7 µM (inactive) | 3.53 µM (inactive) | 4.31 µM (inactive) | 3.99 µM (inactive) | 7.01 µM (inactive) |  | 3.5 µM (inactive) | 4.45 µM (inactive) |
| O=[N+]([O-])C(=C(N1CCOCC1)N1CCOCC1)/C(Cl)=C(\Cl)Br | > 100 µM (inactive) | 16.1 µM (inactive) | > 10 µM (inactive) | 3.86 µM (inactive) | 13.3 µM (inactive) | 2.65 µM (inactive) |  | 17.3 µM (inactive) |  | 17.1 µM (inactive) | 17 µM (inactive) | > 100 µM (inactive) | 18.4 µM (inactive) | 19 µM (inactive) | 16.2 µM (inactive) | 24.8 µM (inactive) | 18.4 µM (inactive) | 21.8 µM (inactive) | 15.7 µM (inactive) | 14.5 µM (inactive) |
